Laboratory results: ChEMBL document CHEMBL5620365, “Synthesis and evaluation of piperazinotriazoles. Discovery of a potent and orally bioavailable neurokinin-3 receptor inhibitor” (Eur J Med Chem, 2023)

Legend:
in vivo [1] = details: Sprague-Dawley, rat, po, 5 mg/kg
in vivo [2] = details: Sprague-Dawley, rat, iv, 1 mg/kg
in vivo [3] = details: Sprague-Dawley, rat, po, 5 mg/kg; remark: listed apart in the source
in vivo [4] = details: Sprague-Dawley, rat, iv, 1 mg/kg; remark: listed apart in the source
in vivo [5] = details: Sprague-Dawley, rat, po, 5 mg/kg; remark: listed apart in the source
in vivo [6] = details: Sprague-Dawley, rat, iv, 1 mg/kg; remark: listed apart in the source
in vivo [7] = details: Sprague-Dawley, rat, iv, 1 mg/kg; remark: listed apart in the source
in vivo [8] = details: Sprague-Dawley, rat, iv, 1 mg/kg; remark: listed apart in the source
in vivo [9] = details: Sprague-Dawley, rat, po, 5 mg/kg; remark: listed apart in the source
in vivo [10] = details: Sprague-Dawley, rat, liver, po, 5 mg/kg
in vivo [11] = details: Sprague-Dawley, rat, brain, po, 5 mg/kg
in vivo [12] = details: Sprague-Dawley, rat, brain, po, 5 mg/kg; remark: listed apart in the source
in vitro [13] = details: rat, liver microsomes
in vitro [14] = details: human, liver microsomes

Cc1nsc(-c2nnc3n2CCN(C(=O)c2ccc(F)cc2)[C@@H]3C)n1 [FEZOLINETANT] showed a Tmax at 24 h (in vivo [1]) of 1.83 h, a Cmax at 24 h (in vivo [2]) of 1770 ng/mL and a Cmax at 24 h (in vivo [3]) of 3630 ng/mL. The AUC(0-t) at 24 h (in vivo [4]) was 5590 ng·h/mL, the AUC(0-t) at 24 h (in vivo [5]) was 31600 ng·h/mL and the clearance at 24 h (in vivo [6]) was 2.93 mL/min/kg. For the same compound, the Vd at 24 h (in vivo [7]) was 0.751 L/kg, the half-life at 24 h (in vivo [8]) was 2.94 h and the half-life at 24 h (in vivo [9]) was 3.72 h. For the same compound, the concentration at 1 h (in vivo [10]) was 12100 ng/g, the concentration at 10 h (in vivo [11]) was 297 ng/g and the concentration at 1 h (in vivo [12]) was 1020 ng/g. For the same compound, the CLint scaled at 0.25 h (in vitro [13]) was < 6.8 mL/min/kg and the CLint scaled at 0.25 h (in vitro [14]) was < 13.5 mL/min/kg.
